The source of these data is patent US6657105B2 (Riken, priority 2000, dated 2003).

The experiment has as its system Or-Prnp transgenic mice. The conditions noted are these: mouse, in vivo, 4 mg/kg.

In the case of `CN1[C@@H]2CC[C@H]1C[C@@H](OC(=O)C(CO)c1ccccc1)C2` (stereo partly shown) [atropine], the “abnormal waves in electrocardiogram after administration of heart stimulant” value was “only Or-Prnp transgenic mice showed the abnormal waves in electrocardiogram”.
